From patent US6268385A, “Dry blend pharmaceutical formulations” (priority 2000, dated 2001)
Blank lines part the entries; values can stand above or below the compound they belong to.

Columns and labels:
Assay type in all cases: physicochemical
[1] = Solubility assessment as a function of HPβCD concentration
Experimental: Solubility studies were performed by the addition of a known mass of 5(6)-methoxy-2-[[(4-methoxy-3,5-dimethyl-2-pyridinyl)-methyl]sulfinyl]-1H- benzimidazole and/or HP CD to a given volume of solvent system. Solubilities were determined by observation, as the maximum concentration at which 5(6)-methoxy-2-[[(4-methoxy-3,5-dimethyl-2-pyridinyl)-methyl]sulfinyl]-1H- benzimidazole completely dissolved. Additionally, concentrations of 5(6)-methoxy-2-[[(4-methoxy-3,5-dimethyl-2-pyridinyl)-methyl]sulfinyl]-1H- benzimidazole and HP C D at set molar ratios were solubilized in systems of high pH (adjusted as high as 12.2, with 1N NaOH), the pH was adjusted (using 2N HCl) in a stepwise downward manner until precipitation occurred.
The solubility of 5(6)-methoxy-2-[[(4-methoxy-3,5-dimethyl-2-pyridinyl)-methyl]sulfinyl]-1H- benzimidazole was assessed as a function of HPβCD concentration in water.
The procedure according to Example 86 was repeated except that water with a borate buffer (pH of 8) was employed.
The procedure according to Example 86 was repeated except that water with a phosphate buffer (pH of 11) was employed.

[2] = FT-Raman quantitation of 5-/6-methoxy isomers in omeprazole API, partial least squares
Experimental: Nicolet Instruments Corp., Madison, Wis.). The present method is conducted in three steps: preparation of standards, establishing a standard curve, and analysis of samples. Typically, a minimum of 4 to 5 standards are prepared. […] In addition to the USP standard, it is necessary to use a standard which is very low in 5-methoxy isomer concentration, preferably in pure form, one which has a high concentration of 5-methoxy isomer such as in the range of about 40%, and a series of at least two other standards distributed over the range from about 5% to about 25%. To establish the standard curve, each standard is run in at least triplicate using the step and repeat sampling device operating in the continuous mode with 15 replicates for each standard preparation and 500 scans per replicate, using a resolution of 2 cm^-1, and a laser power of about 0.7 watt, under instrumental parameters set to generate an acceptable S/N. […] Using such an algorithm, the area percent of the 6-methoxy isomer of each standard having both the 5- and 6-methoxy isomer is determined. The standard deviation for each set of replicates is less than about 0.7% and the average standard deviation for the average of all runs and replicates of a given standard is less than about 0.7% or the resulting data should be investigated. […] Correlation coefficients should be at or above about 0.98 among all standards. Each API sample is then analyzed using the method similar to that described for establishing the standards, except at least triplicate preparations with at least five replicates per sample preparation, and at least 100 scans per replicate with triplicate preparations per sample. Using the above-referenced partial least squares analysis, the percent 6-methoxy isomer, and thus the percent 5-methoxy isomer is determined for each scan and the average of the 15 spectra is calculated. The standard deviation (SD) for each set of replicates is less than about 1.0%, and the average standard deviation of all runs and replicates of a given sample is less than about 1.0%. If the standard deviation is above 1.0%, the results should be investigated. High standard deviation values are an indication of variability which may be caused by small amounts of sample burning. If this is suspected, the preparation should be run again.

[3] = FT-Raman determination of 5-/6-methoxy isomers in omeprazole API, classical least squares; conditions: commercial API lots
Experimental: This method also used an FT-Raman spectrometer (Nicolet Nexus 670 with an FT-Raman accessory, 1064 nm laser, and a step and repeat sampling device). This method, too, is conducted in three stages: preparation of standards, establishing a standard curve, and analysis of samples. Typically a minimum of 4 to 5 standards are prepared. The present FT-Raman method for API and drug product analysis uses the same method set forth above to prepare and establish the standard curve, including preferred aspects, as the method set forth for the more quantitative API method relative to the number of preparations, replicates, and scans per replicate of each standard, resolution, sampling device, deconvolution of standard peaks, determination of peak area, and standard deviation for each set of replicates and the average of all runs and replicates of a given standard. […] In general, the method is performed by a ratio of a peak related to the 6-methoxy isomer (about 1627 cm^-1) to a suitable internal omeprazole band (about 1587 cm^-1). […] Correlation coefficients of the standard curve are at or above about 0.95 among all standards. […] Using the above-referenced corrected classical least squares analysis, the percent 6-methoxy isomer, and thus the percent 5-methoxy isomer, is determined for each scan, and the average of the 15 spectra is calculated.

[4] = commercial API lots, listed as 01
[5] = commercial API lots, listed as 02
[6] = commercial API lots, listed as 03

Compound: COc1ccc2[nH]c([S+]([O-])Cc3ncc(C)c(OC)c3C)nc2c1 (centres unmarked) [5(6)-methoxy-2-[[(4-methoxy-3,5-dimethyl-2-pyridinyl)-methyl]sulfinyl]-1H-benzimidazole]
solubility as a function of HPβCD concentration ([1]; borate buffer, pH of 8): increase linearly
solubility as a function of HPβCD concentration ([1]; phosphate buffer, pH of 11): increase linearly
solubility as a function of HPβCD concentration ([1]; water): increase linearly

% 5-isomer ([2]; standards): 5.875%
% 6-isomer ([2]; standards): 94.125%
Compound: COc1ccc2nc([S+]([O-])Cc3ncc(C)c(OC)c3C)[nH]c2c1 (centres unmarked) [Example 1, 6-methoxy-2-[[(4-methoxy-3,5-dimethyl-2-pyridinyl)-methyl]sulfinyl]-1H-benzimidazole]

% 5-isomer ([2]; standards): 0.000%
% 6-isomer ([2]; standards): 100.000%
Compound: COc1ccc2nc([S+]([O-])Cc3ncc(C)c(OC)c3C)[nH]c2c1 (centres unmarked) [Example 1a, 6-methoxy-2-[[(4-methoxy-3,5-dimethyl-2-pyridinyl)methyl]sulfinyl]-1H-benzimidazole]

Compound: COc1ccc2[nH]c([S+]([O-])Cc3ncc(C)c(OC)c3C)nc2c1 (centres unmarked) [Example 36, (5)6-methoxy-2-[[(4-methoxy-3,5-dimethyl-2-pyridinyl)-methyl]sulfinyl]-1H-benzimidazole]
% 5-isomer ([2]; standards): 16.005%
% 6-isomer ([2]; standards): 83.995%

Compound: COc1ccc2[nH]c([S+]([O-])Cc3ncc(C)c(OC)c3C)nc2c1 (centres unmarked) [Example 37, (5)6-methoxy-2-[[(4-methoxy-3,5-dimethyl-2-pyridinyl)-methyl]sulfinyl]-1H-benzimidazole]
% 5-isomer ([2]; standards): 12.246%
% 6-isomer ([2]; standards): 87.754%

Compound: COc1ccc2[nH]c([S+]([O-])Cc3ncc(C)c(OC)c3C)nc2c1 (centres unmarked) [Example 41, (5)6-methoxy-2-[[(4-methoxy-3,5-dimethyl-2-pyridinyl)-methyl]sulfinyl]-1H-benzimidazole]
% 5-isomer ([2]; standards): 16.414%
% 6-isomer ([2]; standards): 83.587%

Compound: COc1ccc2[nH]c([S+]([O-])Cc3ncc(C)c(OC)c3C)nc2c1 (centres unmarked) [Example 44, (5)6-methoxy-2-[[(4-methoxy-3,5-dimethyl-2-pyridinyl)-methyl]sulfinyl]-1H-benzimidazole]
% 5-isomer ([2]; standards): 41.258%
% 6-isomer ([2]; standards): 58.742%

Compound: COc1ccc2[nH]c([S+]([O-])Cc3ncc(C)c(OC)c3C)nc2c1 (centres unmarked) [Lot 01]
% 5-isomer [2, 4]: 7.50%
% 6-isomer [2, 4]: 92.50%
% 5-isomer ([3]; listed as 01): 6.14%
% 6-isomer ([3]; listed as 01): 93.86%

Compound: COc1ccc2[nH]c([S+]([O-])Cc3ncc(C)c(OC)c3C)nc2c1 (centres unmarked) [Lot 02]
% 5-isomer [2, 5]: 8.02%
% 6-isomer [2, 5]: 91.98%
% 5-isomer ([3]; listed as 02): 6.56%
% 6-isomer ([3]; listed as 02): 93.44%

Compound: COc1ccc2[nH]c([S+]([O-])Cc3ncc(C)c(OC)c3C)nc2c1 (centres unmarked) [Lot 03]
% 5-isomer [2, 6]: 7.61%
% 6-isomer [2, 6]: 92.39%
% 5-isomer ([3]; listed as 03): 6.40%
% 6-isomer ([3]; listed as 03): 93.60%

Compound: COc1ccc2[nH]c([S+]([O-])Cc3ncc(C)c(OC)c3C)nc2c1 (centres unmarked) [USP]
% 5-isomer ([2]; standards): 7.250%
% 6-isomer ([2]; standards): 92.750%
